Measurements from article PMC5362474 (Oncotarget, 2017).

Legend:
[1] = test system: Bel-7402 cells; assay: MTT proliferation assay on Bel-7402 cells; assay type: cell-based; conditions: Homo sapiens
Method: (§1) MTT assay was then applied at 24 h, 48 h. […] However, all the compounds were active against Bel-7402, HepG2, A549 and HeLa cells to some extent. […] Before we began to design these compounds, we carefully studied these references. […] Hu C T, et al., Wang SY, et al. and Xie B, et al. reported that HepG2 was inhibited by inhibiting c-Met/HGF signaling pathway. […] Further research works on activities are currently under investigation and will be reported in due course. […] Proliferation of cells was evaluated by MTT assay. Cells were inoculated at 1.0 × 10^4 cells/mL with 200 μL in each well of 96-well plate and allowed to adhere to the plates overnight. […] After removal of the medium, cells were treated with 150 μL of DMSO and shaken for 15 min to completely dissolve the formazan crystals. The absorbances at 590 nm of the dissolved solutions were detected using a SpectraMAX190 microplate reader (Molecular Devices, USA).

[2] = test system: HepG2 cells; assay: MTT proliferation assay on HepG2 cells; assay type: cell-based; conditions: Homo sapiens
Method: as §1

[3] = test system: A549 cells; assay: MTT proliferation assay on A549 cells; assay type: cell-based; conditions: Homo sapiens
Method: as §1

[4] = test system: Hela cells; assay: MTT proliferation assay on HeLa cells; assay type: cell-based; conditions: Homo sapiens
Method: as §1

[5] = target: T1, recombinant human c-Met residues 974-end (Homo sapiens, UniProt P08581); assay: Inhibition of c-Met kinase (TR-FRET); assay type: biochemical; conditions: for inhibition at 0.19 µM / inhibition at 0.39 µM / inhibition at 0.78 µM / inhibition at 1.56 µM / inhibition at 3.12 µM / inhibition at 6.25 µM / inhibition at 12.5 µM / inhibition at 25 µM / inhibition at 50 µM / inhibition at 100 µM: read-out: Inhibitory rate on c-Met kinase; for inhibition at 12.5 µM: 12.50 μM; for IC50: TR-FRET, read-out: IC50 against c-Met kinase; for c-Met Inhibition rate (%): concentration not given
T1 construct: recombinant human c-Met residues 974-end; 6His; purchased Millipore
Method: The inhibitions of c-Met kinase were investigated referred to a published literature. The IC50 values were detected using TR-FRET. 50 nM 6 His-tagged recombinant human c-Met residues 974-end (Millipore) was cultured in medium containing 2.5 m mol/L MnCl2, 10 m mol/L MgCl2, 20 m mol/L Tris, 2 m mol/L DTT and 0.01% Tween 20 with 5 m mol/L ATP and 200 n mol/L 5FAM-KKK -[…]-NH2 with 25 μL at room temperature for 60 min. Compounds were made up to 100 μM solutions and were tested with 10 concentration gradients by two times dilutions. Each group was tested for three times Reactions were termined by IMAP stop solution. Plates were incubated for an overnight and analyzed by using AiphaQuest.

T1 sequence (P08581 974-1390 limits assumed): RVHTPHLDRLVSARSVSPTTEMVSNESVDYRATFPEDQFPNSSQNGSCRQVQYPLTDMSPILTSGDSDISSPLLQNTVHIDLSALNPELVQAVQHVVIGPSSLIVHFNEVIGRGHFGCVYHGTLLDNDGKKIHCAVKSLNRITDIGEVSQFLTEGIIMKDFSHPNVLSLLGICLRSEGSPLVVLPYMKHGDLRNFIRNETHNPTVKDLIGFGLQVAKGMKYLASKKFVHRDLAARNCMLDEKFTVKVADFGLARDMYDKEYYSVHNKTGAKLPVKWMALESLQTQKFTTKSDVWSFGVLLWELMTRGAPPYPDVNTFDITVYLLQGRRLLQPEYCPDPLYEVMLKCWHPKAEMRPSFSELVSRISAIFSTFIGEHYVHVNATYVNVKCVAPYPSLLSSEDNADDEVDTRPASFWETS

Row | IC50 ([1]; 24 h) | IC50 ([1]; 48 h) | IC50 ([2]; 24 h) | IC50 ([2]; 48 h) | IC50 ([3]; 24 h) | IC50 ([3]; 48 h) | IC50 ([4]; 24 h) | IC50 ([4]; 48 h) | inhibition at 0.19 µM [5] | inhibition at 0.39 µM [5] | inhibition at 0.78 µM [5] | inhibition at 1.56 µM [5] | inhibition at 3.12 µM [5] | inhibition at 6.25 µM [5] | inhibition at 12.5 µM [5] | inhibition at 25 µM [5] | inhibition at 50 µM [5] | inhibition at 100 µM [5] | IC50 [5] | c-Met Inhibition rate (%) [5] | SMILES
1 | 75.9 ± 0.96 µM | 74.2 ± 0.83 µM | 68.2 ± 0.69 µM | 71.5 ± 0.82 µM | 84.85 ± 0.71 µM | 81.9 ± 0.88 µM | 83.64 ± 0.73 µM | 83.78 ± 0.76 µM | 35.6 ± 0.44% | 46.9 ± 0.51% | 54.47 ± 0.47% | 63.4 ± 0.66% | 67.05 ± 0.59% | 72.56 ± 0.67% | 77.8 ± 0.81% | 81.24 ± 0.77% | 86 ± 0.93% | 88.8 ± 1.11% | 0.56 µM | 56% | CC(C)=C1C/C=C(\C)CC/C=C(\C)CC1OC(=O)c1ccc(C)cc1 (centres unmarked) [Compound 3b, (3E,7E)-3,7-dimethyl-10-(propan-2-ylidene)cyclodeca-3,7-dien-1-yl-4-methylbenzoate]
2 | 157.3 ± 1.33 µM | 166.2 ± 1.51 µM | 147.7 ± 1.47 µM | 152 ± 1.71 µM | 162.2 ± 1.55 µM | 169 ± 1.74 µM | 149.3 ± 1.33 µM | 153 ± 1.65 µM | 26.3 ± 0.37% | 40 ± 0.43% | 47.2 ± 0.57% | 58.5 ± 0.69% | 65 ± 0.74% | 69 ± 0.76% | 74.6 ± 0.81% | 79.3 ± 0.85% | 84.3 ± 0.93% | 86.9 ± 0.97% | 1.06 µM | 31% | CC(=O)OC1C/C(C)=C/CC/C(C)=C/CC1=C(C)C (centres unmarked) [Compound 3a, (3E,7E)-3,7-dimethyl-10-(propan-2-ylidene)cyclodeca-3,7-dien-1-yl-acetate]
3 | 167 ± 1.91 µM | 166 ± 1.83 µM | 155 ± 1.75 µM | 161.5 ± 1.32 µM | 177 ± 1.8 µM | 185 ± 1.99 µM | 157.3 ± 1.47 µM | 163 ± 1.73 µM | 20 ± 0.27% | 34.9 ± 0.37% | 43.1 ± 0.52% | 55.2 ± 0.61% | 59.88 ± 0.53% | 64.16 ± 0.64% | 69.98 ± 0.59% | 74.21 ± 0.69% | 78.2 ± 0.88% | 81.2 ± 0.94% | 1.77 µM | 23% | CC(C)=C1C/C=C(\C)CC/C=C(\C)CC1O (centres unmarked) [Compound 2, (3E,7E)-3,7-dimethyl-10-(propan-2-ylidene)cyclodeca-3,7-dienol]
4 | 173.5 ± 1.53 µM | 177 ± 1.97 µM | 170 ± 2.07 µM | 175 ± 1.88 µM | 180 ± 2.14 µM | 177 ± 1.87 µM | 160.7 ± 1.54 µM | 168 ± 1.81 µM | 23.4 ± 0.33% | 39.1 ± 0.45% | 47 ± 0.55% | 58.8 ± 0.61% | 65.4 ± 0.67% | 69.2 ± 0.77% | 73.7 ± 0.89% | 77.5 ± 0.97% | 82.1 ± 1.21% | 88 ± 1.01% | 1.15 µM | 27% | CC(C)=C1C/C=C(\C)CC/C=C(\C)CC1=O [Compound 1, germacrone, reference compound]
5 | 75.9 ± 0.81 µM | 79.2 ± 0.89 µM | 72.48 ± 0.64 µM | 69.98 ± 0.68 µM | 90.11 ± 0.75 µM | 88.21 ± 0.81 µM | 86.55 ± 0.8 µM | 88.24 ± 0.84 µM | 28.28 ± 0.22% | 42.75 ± 0.35% | 48.01 ± 0.39% | 61.4 ± 0.64% | 67.5 ± 0.77% | 70.31 ± 0.59% | 75.7 ± 0.78% | 80 ± 0.91% | 85.3 ± 0.87% | 88.4 ± 0.99% | 0.87 µM | 41% | CC(C)=C1C/C=C(\C)CC/C=C(\C)CC1OC(=O)/C=C\c1ccccc1 (centres unmarked) [Compound 3e, (Z)-(3E,7E)-3,7-dimethyl-10-(propan-2-ylidene)cyclodeca-3,7-dien-1-yl-3-phenylacrylate]
6 | 80.1 ± 1.19 µM | 77.56 ± 0.77 µM | 74.7 ± 0.99 µM | 78.85 ± 0.77 µM | 93.48 ± 0.79 µM | 95.9 ± 0.97 µM | 91.25 ± 0.87 µM | 93.31 ± 0.9 µM | 31.56 ± 0.27% | 40.88 ± 0.35% | 47.08 ± 0.44% | 59.03 ± 0.57% | 64.22 ± 0.59% | 69 ± 0.74% | 75.5 ± 0.88% | 80.6 ± 0.84% | 85.4 ± 0.96% | 87.7 ± 0.95% | 0.92 µM | 38% | CC(C)=C1C/C=C(\C)CC/C=C(\C)CC1OC(=O)c1ccc(C(F)(F)F)cc1 (centres unmarked) [Compound 3d, (3E,7E)-3,7-dimethyl-10-(propan-2-ylidene)cyclodeca-3,7-dien-1-yl-4-(trifluoromethyl)benzoate]
7 | 75.5 ± 1.05 µM | 78.55 ± 0.51 µM | 70.2 ± 0.87 µM | 67.84 ± 0.48 µM | 88.52 ± 0.53 µM | 87.2 ± 0.94 µM | 84.1 ± 0.71 µM | 82.54 ± 0.64 µM | 33.8 ± 0.45% | 42.6 ± 0.51% | 48 ± 0.62% | 59.6 ± 0.66% | 64.5 ± 0.73% | 70 ± 0.81% | 73.79 ± 0.69% | 78.9 ± 0.87% | 83.7 ± 0.95% | 87.4 ± 1.2% | 0.83 µM | 47% | CC(C)=C1C/C=C(\C)CC/C=C(\C)CC1OC(=O)c1cccc(C)c1 (centres unmarked) [Compound 3c, (3E,7E)-3,7-dimethyl-10-(propan-2-ylidene)cyclodeca-3,7-dien-1-yl-3-methylbenzoate]
